The subject of the assay is SARS-CoV-2 Omicron variant BA.1 in Vero E6 cells. Description: microbe, parasite or virus in culture. It is filed as cell-based.

From PMC11089505, “Structural Elucidation and Antiviral Activity of Covalent Cathepsin L Inhibitors” (Journal of Medicinal Chemistry, 2024) come the findings set out here.

Each structure is given as a SMILES string. “And” between values parts separate entries of the source, which are not always exact repeats. Equal values may be shown once.

Consider `CCC(CC)COC(=O)[C@H](C)N[P@](=O)(OC[C@H]1O[C@@](C#N)(c2ccc3c(N)ncnn23)[C@H](O)[C@@H]1O)Oc1ccccc1` [Remdesivir], for which the “% RNA (qRT-PCR)” value was 124.5% and 63.1%.

As a reminder, the EC50 is the concentration giving half of the maximal effect. With `CCCC(NC(=O)C(CC(C)C)NC(=O)OCc1ccccc1)C(=O)C(=O)NCc1ccccn1` (stereo not drawn) [CI-XII, Benzyl N-[1-[[1.2-dioxo-1-(pyridin-2-ylmethylamino)hexan-3-yl]amino]-4-methyl-1-oxopentan-2-yl]carbamate], the “reduction of quantity of viral RNA” value was “more than 50%”. The EC50 (Severe acute respiratory syndrome coronavirus 2, Vero C1008, 24 h, read-out: EC50 (qRT-PCR)) is below 100 nM.
